Laboratory results as given in US20240246942A1, “KINASE INHIBITORS FOR THE TREATMENT OF NEURODEGENERATIVE DISEASES” (priority 2020, published 2024).

Columns and labels:
Assay in all cases: biochemical
[1] = target: T1, panel of 374 wild-type kinases (Homo sapiens, UniProt O60674); details: read-out: % Enzyme Activity (relative to DMSO controls), JAK2
T1 construct: purchased Reaction Biology Corporation

[2] = target: T2, panel of 374 wild-type kinases (Homo sapiens, UniProt Q6P5Z2); details: read-out: % Enzyme Activity (relative to DMSO controls), kinase PKN3/PRK3
T2 construct: purchased Reaction Biology Corporation

[3] = target: T3, panel of 374 wild-type kinases (Homo sapiens, UniProt Q9UHD2); details: read-out: % Enzyme Activity (relative to DMSO controls), kinase TBK1
T3 construct: purchased Reaction Biology Corporation
T3 sequence (Q9UHD2 1-729): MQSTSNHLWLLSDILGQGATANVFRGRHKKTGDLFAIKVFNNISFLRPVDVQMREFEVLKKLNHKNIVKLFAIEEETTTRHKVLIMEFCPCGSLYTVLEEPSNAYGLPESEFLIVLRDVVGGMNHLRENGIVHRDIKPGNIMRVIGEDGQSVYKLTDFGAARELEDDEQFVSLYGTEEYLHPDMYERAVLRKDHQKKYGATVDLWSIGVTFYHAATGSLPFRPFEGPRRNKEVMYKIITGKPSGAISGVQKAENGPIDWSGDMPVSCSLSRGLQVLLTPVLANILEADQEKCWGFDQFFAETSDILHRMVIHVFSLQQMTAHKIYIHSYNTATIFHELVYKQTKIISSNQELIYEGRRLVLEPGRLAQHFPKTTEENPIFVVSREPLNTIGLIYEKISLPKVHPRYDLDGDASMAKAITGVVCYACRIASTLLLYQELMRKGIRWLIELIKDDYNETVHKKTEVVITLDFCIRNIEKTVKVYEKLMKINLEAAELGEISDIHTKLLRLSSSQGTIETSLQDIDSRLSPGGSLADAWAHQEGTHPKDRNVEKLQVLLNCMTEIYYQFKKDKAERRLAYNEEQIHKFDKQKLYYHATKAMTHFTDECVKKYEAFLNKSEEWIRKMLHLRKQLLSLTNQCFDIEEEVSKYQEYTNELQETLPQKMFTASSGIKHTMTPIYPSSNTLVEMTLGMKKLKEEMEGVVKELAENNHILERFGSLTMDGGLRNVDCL

[4] = target: T4, panel of 374 wild-type kinases (Homo sapiens, UniProt Q02750); details: read-out: % Enzyme Activity (relative to DMSO controls), MEK1
T4 construct: purchased Reaction Biology Corporation

[5] = target: T5, panel of 374 wild-type kinases (Homo sapiens, UniProt P43250); details: read-out: % Enzyme Activity (relative to DMSO controls), GRK6
T5 construct: purchased Reaction Biology Corporation

[6] = target: T6, panel of 374 wild-type kinases (Homo sapiens, UniProt Q13237); details: read-out: % Enzyme Activity (relative to DMSO controls), kinase PKG2/PRKG2
T6 construct: purchased Reaction Biology Corporation
T6 sequence (Q13237 1-762): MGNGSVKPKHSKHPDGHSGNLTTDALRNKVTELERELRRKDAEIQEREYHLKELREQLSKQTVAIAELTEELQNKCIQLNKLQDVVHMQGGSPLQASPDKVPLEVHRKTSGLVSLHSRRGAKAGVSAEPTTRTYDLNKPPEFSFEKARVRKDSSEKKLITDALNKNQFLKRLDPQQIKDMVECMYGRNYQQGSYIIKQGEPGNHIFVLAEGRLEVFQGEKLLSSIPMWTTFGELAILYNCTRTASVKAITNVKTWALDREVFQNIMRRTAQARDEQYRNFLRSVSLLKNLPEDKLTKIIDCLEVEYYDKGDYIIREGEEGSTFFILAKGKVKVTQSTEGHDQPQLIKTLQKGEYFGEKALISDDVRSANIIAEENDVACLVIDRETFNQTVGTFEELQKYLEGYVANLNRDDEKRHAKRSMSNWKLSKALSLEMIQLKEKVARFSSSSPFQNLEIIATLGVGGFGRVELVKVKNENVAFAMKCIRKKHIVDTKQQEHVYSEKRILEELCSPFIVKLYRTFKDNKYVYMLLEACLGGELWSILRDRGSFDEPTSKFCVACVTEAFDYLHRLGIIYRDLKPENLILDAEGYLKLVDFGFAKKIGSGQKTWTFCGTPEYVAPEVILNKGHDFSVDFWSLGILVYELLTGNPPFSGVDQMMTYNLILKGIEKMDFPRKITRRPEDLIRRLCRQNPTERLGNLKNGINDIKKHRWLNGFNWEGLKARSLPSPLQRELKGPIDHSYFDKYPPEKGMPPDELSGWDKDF

[7] = target: T7, panel of 374 wild-type kinases (Homo sapiens, UniProt Q32MK0); details: read-out: % Enzyme Activity (relative to DMSO controls), MYLK3
T7 construct: purchased Reaction Biology Corporation
T7 sequence (Q32MK0 1-819): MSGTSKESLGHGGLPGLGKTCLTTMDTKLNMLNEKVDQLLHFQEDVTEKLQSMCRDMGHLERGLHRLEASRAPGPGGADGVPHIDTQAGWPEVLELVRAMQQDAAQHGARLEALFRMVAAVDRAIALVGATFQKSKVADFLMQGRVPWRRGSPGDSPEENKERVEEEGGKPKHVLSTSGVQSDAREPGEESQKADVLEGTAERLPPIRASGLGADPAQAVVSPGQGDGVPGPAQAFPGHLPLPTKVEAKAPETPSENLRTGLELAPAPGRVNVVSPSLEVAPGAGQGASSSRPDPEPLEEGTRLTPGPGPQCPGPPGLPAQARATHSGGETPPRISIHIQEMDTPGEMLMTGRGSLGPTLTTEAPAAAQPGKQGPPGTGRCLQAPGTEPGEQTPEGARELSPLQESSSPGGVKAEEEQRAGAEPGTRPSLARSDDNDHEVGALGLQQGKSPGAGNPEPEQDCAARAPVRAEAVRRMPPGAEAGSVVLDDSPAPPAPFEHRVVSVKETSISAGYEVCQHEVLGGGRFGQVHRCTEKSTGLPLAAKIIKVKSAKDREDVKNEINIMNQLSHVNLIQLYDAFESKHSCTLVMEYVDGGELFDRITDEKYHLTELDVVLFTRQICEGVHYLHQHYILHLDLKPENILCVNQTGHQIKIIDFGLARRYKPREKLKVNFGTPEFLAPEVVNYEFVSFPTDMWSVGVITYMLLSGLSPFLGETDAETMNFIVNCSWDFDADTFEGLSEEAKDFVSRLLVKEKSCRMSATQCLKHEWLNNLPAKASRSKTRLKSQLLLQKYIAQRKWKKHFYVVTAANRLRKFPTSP

T4 sequence (Q02750 whole entry): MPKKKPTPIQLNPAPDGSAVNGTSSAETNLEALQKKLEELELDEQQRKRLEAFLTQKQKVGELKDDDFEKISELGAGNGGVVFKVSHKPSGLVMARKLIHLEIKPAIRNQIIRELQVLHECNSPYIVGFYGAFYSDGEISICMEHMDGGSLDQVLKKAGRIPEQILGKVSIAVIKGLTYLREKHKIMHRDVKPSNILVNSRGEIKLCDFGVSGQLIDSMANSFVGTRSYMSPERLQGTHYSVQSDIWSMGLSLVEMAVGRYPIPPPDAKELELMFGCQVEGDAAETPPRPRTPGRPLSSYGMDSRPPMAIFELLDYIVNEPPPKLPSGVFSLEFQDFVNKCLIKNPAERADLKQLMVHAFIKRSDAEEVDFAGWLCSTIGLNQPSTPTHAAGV
T5 sequence (P43250 whole entry): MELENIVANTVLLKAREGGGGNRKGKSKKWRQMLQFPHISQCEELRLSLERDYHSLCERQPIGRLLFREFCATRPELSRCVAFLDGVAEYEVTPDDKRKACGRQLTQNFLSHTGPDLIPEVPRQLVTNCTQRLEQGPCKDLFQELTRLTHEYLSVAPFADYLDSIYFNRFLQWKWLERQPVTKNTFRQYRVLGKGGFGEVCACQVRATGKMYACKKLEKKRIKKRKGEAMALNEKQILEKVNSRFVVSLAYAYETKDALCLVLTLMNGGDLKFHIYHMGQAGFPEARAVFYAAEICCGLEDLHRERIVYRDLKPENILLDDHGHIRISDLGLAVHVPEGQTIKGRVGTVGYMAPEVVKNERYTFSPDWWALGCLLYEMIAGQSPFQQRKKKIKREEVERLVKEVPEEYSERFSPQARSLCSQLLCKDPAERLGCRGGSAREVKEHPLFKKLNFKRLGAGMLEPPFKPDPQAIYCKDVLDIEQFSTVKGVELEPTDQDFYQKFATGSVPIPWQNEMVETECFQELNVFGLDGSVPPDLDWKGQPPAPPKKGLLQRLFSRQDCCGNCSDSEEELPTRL
T1 sequence (O60674 whole entry): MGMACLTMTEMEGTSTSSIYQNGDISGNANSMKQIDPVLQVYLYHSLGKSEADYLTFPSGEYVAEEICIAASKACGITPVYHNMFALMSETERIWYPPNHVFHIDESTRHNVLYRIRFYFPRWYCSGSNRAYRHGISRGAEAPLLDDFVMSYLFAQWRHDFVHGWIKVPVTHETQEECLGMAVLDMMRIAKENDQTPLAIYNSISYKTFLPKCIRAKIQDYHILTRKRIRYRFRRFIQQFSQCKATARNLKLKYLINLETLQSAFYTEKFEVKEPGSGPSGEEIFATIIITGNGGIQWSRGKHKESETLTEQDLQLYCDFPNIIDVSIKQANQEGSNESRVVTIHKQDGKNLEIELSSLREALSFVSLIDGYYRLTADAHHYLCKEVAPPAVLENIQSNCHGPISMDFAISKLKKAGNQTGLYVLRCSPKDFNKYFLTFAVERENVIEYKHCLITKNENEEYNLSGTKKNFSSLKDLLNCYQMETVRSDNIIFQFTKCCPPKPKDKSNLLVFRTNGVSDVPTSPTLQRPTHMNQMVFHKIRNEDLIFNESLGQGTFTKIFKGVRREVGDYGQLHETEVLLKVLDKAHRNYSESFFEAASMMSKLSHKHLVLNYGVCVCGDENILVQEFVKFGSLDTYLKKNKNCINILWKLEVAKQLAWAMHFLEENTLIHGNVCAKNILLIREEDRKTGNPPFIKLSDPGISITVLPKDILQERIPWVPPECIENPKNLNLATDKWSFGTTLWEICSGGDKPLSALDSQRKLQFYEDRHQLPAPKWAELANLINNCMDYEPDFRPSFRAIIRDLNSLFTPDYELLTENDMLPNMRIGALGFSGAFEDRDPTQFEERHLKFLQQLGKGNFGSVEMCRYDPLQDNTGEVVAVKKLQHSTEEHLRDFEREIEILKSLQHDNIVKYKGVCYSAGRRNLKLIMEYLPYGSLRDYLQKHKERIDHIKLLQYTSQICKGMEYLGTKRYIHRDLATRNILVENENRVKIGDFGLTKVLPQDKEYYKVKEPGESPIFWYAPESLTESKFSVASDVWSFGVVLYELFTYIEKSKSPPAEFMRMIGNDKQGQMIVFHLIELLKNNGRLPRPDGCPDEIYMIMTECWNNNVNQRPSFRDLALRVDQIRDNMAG
T2 sequence (Q6P5Z2 whole entry): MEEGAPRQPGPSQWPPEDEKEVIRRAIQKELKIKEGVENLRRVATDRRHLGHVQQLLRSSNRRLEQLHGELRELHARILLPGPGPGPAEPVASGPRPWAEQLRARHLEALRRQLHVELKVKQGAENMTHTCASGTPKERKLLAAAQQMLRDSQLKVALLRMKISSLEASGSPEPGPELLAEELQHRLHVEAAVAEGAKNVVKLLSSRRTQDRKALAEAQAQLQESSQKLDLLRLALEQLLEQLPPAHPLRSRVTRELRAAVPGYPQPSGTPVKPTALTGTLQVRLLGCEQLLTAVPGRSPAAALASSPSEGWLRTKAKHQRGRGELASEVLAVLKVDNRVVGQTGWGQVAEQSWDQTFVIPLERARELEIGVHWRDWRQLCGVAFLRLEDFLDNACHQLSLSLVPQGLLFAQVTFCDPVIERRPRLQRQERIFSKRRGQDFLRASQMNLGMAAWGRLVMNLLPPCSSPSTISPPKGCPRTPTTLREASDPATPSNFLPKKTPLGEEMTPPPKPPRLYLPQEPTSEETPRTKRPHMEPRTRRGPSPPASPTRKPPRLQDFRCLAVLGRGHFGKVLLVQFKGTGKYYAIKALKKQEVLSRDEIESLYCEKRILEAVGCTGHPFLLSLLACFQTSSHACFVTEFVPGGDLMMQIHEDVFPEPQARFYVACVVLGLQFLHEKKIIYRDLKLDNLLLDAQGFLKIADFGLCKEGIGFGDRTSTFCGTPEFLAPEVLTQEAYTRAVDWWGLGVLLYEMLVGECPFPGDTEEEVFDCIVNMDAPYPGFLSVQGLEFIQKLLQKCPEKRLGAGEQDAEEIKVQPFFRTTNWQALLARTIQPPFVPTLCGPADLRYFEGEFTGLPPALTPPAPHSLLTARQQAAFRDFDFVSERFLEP

Row | Compound | remaining activity at 10 µM ([1]; 10 uM) [%] | remaining activity at 10 µM ([2]; 10 uM) [%] | remaining activity at 10 µM ([3]; 10 uM) [%] | remaining activity at 10 µM ([4]; 10 uM) [%] | remaining activity at 10 µM ([5]; 10 uM) [%] | remaining activity at 10 µM ([6]; 10 uM) [%] | remaining activity at 10 µM ([7]; 10 uM) [%] | remaining activity at 5 µM [1] [%] | remaining activity at 5 µM [2] [%] | remaining activity at 5 µM [3] [%] | remaining activity at 5 µM [4] [%] | remaining activity at 5 µM [5] [%] | remaining activity at 5 µM [6] [%] | remaining activity at 5 µM [7] [%]
1 | Cc1sc(C(=O)NC2COC2)cc1-n1cc(NC(=O)Nc2c(F)cccc2Cl)cn1 [Compound 27, 4-(4-(3-(2-chloro-6-fluorophenyl)ureido)-1H-pyrazol-1-yl)-5-methyl-N-(oxetan-3-yl)thiophene-2-carboxamide] | 95 | 98.6 | 97.8 | 95.5 | 91.5 | 100 | 112 |  |  |  |  |  |  | 
2 | O=C(Nc1cnn(-c2csc(C(=O)NC3COC3)c2)c1)Nc1c(F)cccc1Cl [Compound 25, 4-(4-(3-(2-chloro-6-fluorophenyl)ureido)-1H-pyrazol-1-yl)-N-(oxetan-3-yl)thiophene-2-carboxamide] |  |  |  |  |  |  |  | 96.5 | 76.2 | 98.8 | 107 | 102 | 101 | 102
3 | O=C(Nc1cnn(-c2csc(C(=O)NC3COC3)c2)c1)Nc1ccccc1Cl [Compound 17, 4-(4-(3-(2-chlorophenyl)ureido)-1H-pyrazol-1-yl)-N-(oxetan-3-yl)thiophene-2-carboxamide] |  |  |  |  |  |  |  | 98.2 | 92.5 | 102 | 104 | 97.9 | 101 | 95.1
